Measured values as given in ChEMBL document CHEMBL4190283, “Pharmacological characterization and binding modes of novel racemic and optically active phenylalanine-based antagonists of AMPA receptors” (Eur J Med Chem, 2017).
The source made the active and inactive calls. The calls are words filed in the database; no cut-off is given here.

Columns and labels:
Glutamate receptor 3 = Glutamate receptor 3 (Rattus norvegicus, UniProt P19492); assay: Displacement of [3H]AMPA from rat GluA3 receptor flip isoform expressed in sf9 insect cell membranes by TopCount method
Glutamate receptor 2 [1] = target: T1, Glutamate receptor 2 (Rattus norvegicus, UniProt P19491); assay: Displacement of [3H]AMPA from rat GluA2(R) receptor flip isoform expressed in sf9 insect cell membranes by TopCount method
[2] = target: Glutamate receptor 2 (Rattus norvegicus) (UniProt P19491); assay: Agonist activity at rat GluA2(Q) receptor flop isoform expressed in Xenopus laevis oocytes at 300 uM by two electrode voltage clamp method; assay type: cell-based
[3] = target: Glutamate receptor 2 (Rattus norvegicus) (UniProt P19491); assay: Antagonist activity at rat GluA2(Q) receptor flop isoform expressed in Xenopus laevis oocytes assessed as inhibition of (S)-glutamate-induced channel activation by two electrode voltage clamp method; assay type: cell-based
Rattus norvegicus = organism: Rattus norvegicus; assay: Selectivity ratio of Ki for rat GluA3 receptor flip isoform expressed in sf9 insect cell membranes to Ki for rat GluA2(R) receptor flip isoform expressed in sf9 insect cell membranes
Glutamate receptor 2 [4] = target: T1, Glutamate receptor 2; assay: Displacement of [3H]AMPA from rat GluA2(Q) receptor flop isoform by TopCount method
[5] = Displacement of [3H]KA from KA receptor in rat brain membranes by scintillation counting method; assay type: cell membranes, Membrane
[6] = Displacement of [3H]AMPA from AMPA receptor in rat brain membranes; assay type: cell membranes, Membrane
Glutamate NMDA receptor = assay: Displacement of [3H]CGP39653 from NMDA receptor in rat brain membranes by scintillation counting method; assay type: cell membranes, Membrane
[7] = Displacement of [3H]AMPA from AMPA receptor in rat brain membranes by scintillation counting method; assay type: cell membranes, Membrane

Sequence of Glutamate receptor 3 (P19492 whole entry, canonical isoform): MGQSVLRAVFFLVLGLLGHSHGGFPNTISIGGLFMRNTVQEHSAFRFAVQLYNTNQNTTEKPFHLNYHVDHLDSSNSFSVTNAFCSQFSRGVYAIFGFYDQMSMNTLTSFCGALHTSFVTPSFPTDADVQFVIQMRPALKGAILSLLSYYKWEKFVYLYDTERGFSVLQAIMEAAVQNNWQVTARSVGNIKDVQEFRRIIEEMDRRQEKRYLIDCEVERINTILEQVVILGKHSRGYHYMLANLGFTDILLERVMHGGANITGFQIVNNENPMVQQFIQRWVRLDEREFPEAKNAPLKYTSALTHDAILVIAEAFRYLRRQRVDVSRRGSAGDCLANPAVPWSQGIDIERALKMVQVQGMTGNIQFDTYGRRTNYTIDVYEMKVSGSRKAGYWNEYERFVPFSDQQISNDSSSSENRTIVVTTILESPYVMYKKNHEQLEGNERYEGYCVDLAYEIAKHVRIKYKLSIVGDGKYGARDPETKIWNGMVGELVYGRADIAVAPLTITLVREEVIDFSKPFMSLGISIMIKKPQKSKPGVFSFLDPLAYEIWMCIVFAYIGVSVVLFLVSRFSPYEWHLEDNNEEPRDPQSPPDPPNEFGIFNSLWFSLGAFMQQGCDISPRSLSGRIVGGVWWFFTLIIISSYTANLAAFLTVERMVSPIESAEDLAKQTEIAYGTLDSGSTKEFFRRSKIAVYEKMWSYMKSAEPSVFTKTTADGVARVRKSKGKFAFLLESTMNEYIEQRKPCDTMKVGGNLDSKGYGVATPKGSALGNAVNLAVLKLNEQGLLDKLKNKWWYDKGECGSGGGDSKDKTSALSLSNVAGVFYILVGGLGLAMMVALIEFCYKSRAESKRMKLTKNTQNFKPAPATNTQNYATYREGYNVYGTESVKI
T1 sequence (P19491 whole entry, canonical isoform): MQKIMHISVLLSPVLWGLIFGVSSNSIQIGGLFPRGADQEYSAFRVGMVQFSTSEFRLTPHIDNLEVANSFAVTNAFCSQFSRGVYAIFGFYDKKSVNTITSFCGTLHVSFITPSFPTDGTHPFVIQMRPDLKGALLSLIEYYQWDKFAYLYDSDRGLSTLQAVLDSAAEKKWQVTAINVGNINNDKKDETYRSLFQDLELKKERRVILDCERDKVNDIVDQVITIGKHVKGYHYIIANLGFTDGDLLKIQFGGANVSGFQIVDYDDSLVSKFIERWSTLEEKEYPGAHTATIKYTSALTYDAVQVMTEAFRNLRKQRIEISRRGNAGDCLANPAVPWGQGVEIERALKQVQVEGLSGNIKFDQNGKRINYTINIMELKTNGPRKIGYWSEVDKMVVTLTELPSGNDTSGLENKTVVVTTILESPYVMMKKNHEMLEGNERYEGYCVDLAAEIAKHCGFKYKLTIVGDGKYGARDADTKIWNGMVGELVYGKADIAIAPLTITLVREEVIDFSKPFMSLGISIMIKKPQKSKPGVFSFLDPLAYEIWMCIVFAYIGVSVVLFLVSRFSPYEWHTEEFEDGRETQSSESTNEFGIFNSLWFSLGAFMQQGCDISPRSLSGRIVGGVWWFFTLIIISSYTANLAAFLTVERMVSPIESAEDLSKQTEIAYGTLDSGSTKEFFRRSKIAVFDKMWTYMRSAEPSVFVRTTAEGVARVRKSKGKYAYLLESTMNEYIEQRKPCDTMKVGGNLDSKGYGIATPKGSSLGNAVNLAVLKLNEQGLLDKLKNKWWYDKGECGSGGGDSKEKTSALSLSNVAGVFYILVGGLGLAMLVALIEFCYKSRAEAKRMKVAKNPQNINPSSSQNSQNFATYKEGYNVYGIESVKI
Sequence of Glutamate receptor 2 (Rattus norvegicus) (P19491 whole entry, canonical isoform): as above

| Structure (SMILES) | Ki [5] [µM] | Ki (Glutamate NMDA receptor) [µM] | Ki [7] [µM] | pKi [7] | further results |
| --- | --- | --- | --- | --- | --- |
| N[C@@H](Cc1cc(-c2cc(O)ccc2O)c(Cl)c([N+](=O)[O-])c1)C(=O)O |  |  |  |  | Ki (Glutamate receptor 3): > 100 µM; Ki (Glutamate receptor 2 [1]): 18.4 µM |
| N[C@H](Cc1cc(-c2cc(O)ccc2O)c(Cl)c([N+](=O)[O-])c1)C(=O)O |  |  |  |  | Activity [2]: inactive; Kb [3]: 2.13 µM; inhibition [3]: Dose-dependent effect; Ki (Glutamate receptor 3): 7.01 µM; Ratio Ki (Rattus norvegicus): 4; Ki (Glutamate receptor 2 [1]): 1.71 µM; Ki (Glutamate receptor 2 [4]): 1.74 µM |
| N[C@@H](Cc1cc(Cl)cc(-c2cccc(O)c2)c1)C(=O)O |  |  |  |  | Ki (Glutamate receptor 3): > 100 µM; Ki (Glutamate receptor 2 [1]): 40.8 µM |
| N[C@H](Cc1cc(Cl)cc(-c2cccc(O)c2)c1)C(=O)O |  |  |  |  | Ki (Glutamate receptor 3): > 100 µM; Ki (Glutamate receptor 2 [1]): 20.7 µM |
| N[C@@H](Cc1ccc(Cl)c(-c2cccc(O)c2)c1)C(=O)O |  |  |  |  | Ki (Glutamate receptor 3): > 100 µM; Ki (Glutamate receptor 2 [1]): > 100 µM |
| N[C@H](Cc1ccc(Cl)c(-c2cccc(O)c2)c1)C(=O)O |  |  |  |  | Ki (Glutamate receptor 3): > 100 µM; Ki (Glutamate receptor 2 [1]): 21.9 µM |
| CC(C)(C)c1onc(OCP(=O)(O)O)c1C[C@H](N)C(=O)O | > 100 |  |  |  | Ki [6]: 16 µM |
| NC(Cc1cc(Cl)c(Cl)c(-c2cncc(O)c2)c1)C(=O)O (racemic) | > 100 |  |  |  |  |
| NC(Cc1cccc(-c2cccc(O)c2)c1)C(=O)O (racemic) | > 100 |  |  |  |  |
| NC(Cc1cc(-c2cncc(O)c2)c(Cl)c([N+](=O)[O-])c1)C(=O)O (racemic) | > 100 | > 100 | 2 | 5.7 |  |
| NC(Cc1cc(-c2cc(O)ccc2O)c(Cl)c([N+](=O)[O-])c1)C(=O)O (racemic) | 15 | > 100 | 0.92 | 6.04 | pKi [5]: 4.83 |
| NC(Cc1ccc([N+](=O)[O-])c(-c2ccc(O)cc2)c1)C(=O)O (racemic) | > 100 | > 100 | 64 | 4.2 |  |
| NC(Cc1cc(-c2ccc(O)cc2)c(Cl)c([N+](=O)[O-])c1)C(=O)O (racemic) | > 100 | > 100 | 23 | 4.66 |  |
| Nc1c(Cl)cc(CC(N)C(=O)O)cc1-c1cccc(O)c1 (racemic) | > 100 | > 100 | 10 | 4.99 |  |
| NC(Cc1ccc([N+](=O)[O-])c(-c2cccc(O)c2)c1)C(=O)O (racemic) | > 100 | > 100 | 21 | 4.67 |  |
| Nc1c(-c2cccc(O)c2)cc(CC(N)C(=O)O)cc1[N+](=O)[O-] (racemic) | > 100 | > 100 | 14 | 4.84 |  |
| NC(Cc1cc(Cl)cc(-c2ccc(O)cc2)c1)C(=O)O (racemic) | > 100 | > 100 | 46 | 4.34 |  |
| NC(Cc1cc(Cl)cc(-c2cccc(O)c2)c1)C(=O)O (racemic) | > 100 | > 100 | 9.3 | 5.06 |  |
| COc1c(Cl)cc(CC(N)C(=O)O)cc1-c1cccc(O)c1 (racemic) | > 100 | > 100 | > 100 |  |  |
| NC(Cc1cc(-c2cccc(O)c2)cc([N+](=O)[O-])c1)C(=O)O (racemic) | > 100 | > 100 | 8.2 | 5.09 |  |
| NC(Cc1ccc(Cl)c(-c2ccc(O)cc2)c1)C(=O)O (racemic) | > 100 | > 100 | 65 | 4.19 |  |
| NC(Cc1cc(-c2cc(O)cc(F)c2)c(Cl)c([N+](=O)[O-])c1)C(=O)O (racemic) | 26 | > 100 | 3.4 | 5.47 | pKi [5]: 4.58 |
| NC(Cc1ccc(Cl)c(-c2cccc(O)c2)c1)C(=O)O (racemic) | > 100 | > 100 | 9.2 | 5.04 |  |
| NC(Cc1cc(Cl)c(O)c(-c2cccc(O)c2)c1)C(=O)O (racemic) | > 100 | > 100 | 7.9 | 5.1 |  |
| NC(Cc1cc(-c2ccc(O)cc2)cc([N+](=O)[O-])c1)C(=O)O (racemic) | > 100 | > 100 | 21 | 4.68 |  |
| Nc1ccc(CC(N)C(=O)O)cc1-c1cccc(O)c1 (racemic) | > 100 | > 100 | 9.1 | 5.05 |  |
| NC(Cc1cc(-c2cccc(O)c2)c(Cl)c([N+](=O)[O-])c1)C(=O)O (racemic) | > 100 | > 100 | 3.1 | 5.52 |  |
| NC(Cc1cc(Cl)c(Cl)c(-c2cccc(O)c2)c1)C(=O)O (racemic) | > 100 |  |  |  |  |
